Laboratory results as given in BindingDB's records for doi:10.7270/Q2639NCQ (The Scripps Research Institute Molecular Screening Center, 2013).
pIC50: −log10 of the molar value.

Target: T1, Mitochondrial peptide methionine sulfoxide reductase (Bos taurus, UniProt P54149)
T1 sequence (P54149 whole entry): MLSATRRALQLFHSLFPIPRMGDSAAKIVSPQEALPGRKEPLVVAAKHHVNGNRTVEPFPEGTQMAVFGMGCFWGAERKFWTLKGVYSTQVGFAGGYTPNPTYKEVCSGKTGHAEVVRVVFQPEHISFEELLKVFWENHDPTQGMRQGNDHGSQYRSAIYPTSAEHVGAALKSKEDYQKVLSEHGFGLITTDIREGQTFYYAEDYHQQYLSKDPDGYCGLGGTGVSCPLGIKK

`O=[N+]([O-])c1cnc(Nc2ccc(Cl)cn2)c([N+](=O)[O-])c1` and `Nc1ccccc1Nc1ccc([N+](=O)[O-])cc1[N+](=O)[O-]` [N~1~-(2,4-dinitrophenyl)-1,2-benzenediamine] cannot be ordered by pIC50: less than 3.81 for the first, less than 3.81 for the second.

`COc1cccc(Nc2nc3cc(OC)ccc3cc2C#N)c1` [7-methoxy-2-(3-methoxyanilino)-3-quinolinecarbonitrile] and `COc1cccc(Nc2nc3ccccc3n3nnnc23)c1` [N-(3-methoxyphenyl)-[1,2,3,4]tetrazolo[1,5-a]quinoxalin-4-amine] cannot be ordered by pIC50: less than 3.81 for the first, less than 3.81 for the second.

`O=C(O)c1cc(O)c2c(c1)C(=O)c1cccc(O)c1C2=O` [RHEIN] and `Cc1ccc(NS(=O)(=O)c2ccc3c(c2)C(=O)c2ccccc2C3=O)c(C)c1` [SMR000207645] cannot be ordered by pIC50: less than 3.81 for the first, less than 3.81 for the second.

`O=Cc1cn(-c2ccccc2)nc1-c1ccc(F)cc1` [3-(4-fluorophenyl)-1-phenyl-1H-pyrazole-4-carbaldehyde] and `O=Cc1cn(-c2ccccc2)nc1-c1ccc2c(c1)OCCO2` [3-(2,3-Dihydro-benzo[1,4]dioxin-6-yl)-1-phenyl-1H-pyrazole-4-carbaldehyde] cannot be ordered by pIC50: less than 3.81 for the first, less than 3.81 for the second.

`Cc1c(O)ccc2c(-c3ccccc3)cc(=O)oc12` [7-hydroxy-8-methyl-4-phenyl-1-benzopyran-2-one] and `Cc1c(OCC(N)=O)ccc2c(-c3ccccc3)cc(=O)oc12` [2-(8-methyl-2-oxidanylidene-4-phenyl-chromen-7-yl)oxyethanamide] cannot be ordered by pIC50: less than 3.81 for the first, less than 3.81 for the second.

`O=C1C(=O)N(CCCn2ccnc2)C(c2cccc(Br)c2)C1C(=O)c1ccco1` (centres undefined) [2-(3-bromophenyl)-3-[2-furanyl(oxo)methyl]-4-hydroxy-1-[3-(1-imidazolyl)propyl]-2H-pyrrol-5-one] and `COc1cc(C2C(C(=O)c3sc(C)nc3C)C(=O)C(=O)N2CCN(C)C)cc(OC)c1OC` (centres undefined) [1-[2-(dimethylamino)ethyl]-3-[(2,4-dimethyl-5-thiazolyl)-oxomethyl]-4-hydroxy-2-(3,4,5-trimethoxyphenyl)-2H-pyrrol-5-one] cannot be ordered by pIC50: less than 3.81 for the first, less than 3.81 for the second.

`N#CC1C(=N)Oc2c(O)cc3ccccc3c2C1c1ccsc1` (centres undefined) [3-amino-5-hydroxy-1-(3-thiophenyl)-1H-benzo[f][1]benzopyran-2-carbonitrile] and `CC(=O)COc1ccc2oc(=O)cc(-c3cc4ccccc4o3)c2c1` [SMR000641655] cannot be ordered by pIC50: less than 3.81 for the first, less than 3.81 for the second.

`COC(=O)c1ccccc1NC(=S)NC(=O)C1CC1` [methyl 2-({[(cyclopropylcarbonyl)amino]carbothioyl}amino)benzoate] and `COc1ccc(NC(=O)COC(=O)C2CCCCC2)c([N+](=O)[O-])c1` [SMR000261453] cannot be ordered by pIC50: less than 3.81 for the first, less than 3.81 for the second.

`CC(Nc1ccc([N+](=O)[O-])cc1[N+](=O)[O-])c1ccccc1` (centres undefined) and `CC(Nc1cc(N2CCOCC2)ccc1[N+](=O)[O-])c1ccccc1` (centres undefined) [MLS000573605] cannot be ordered by pIC50: less than 3.81 for the first, less than 3.81 for the second.

`COC(=O)N1[C@H](C)C=C[C@]1(Cc1ccccc1)C(=O)NCCCNc1ncc(C(F)(F)F)cc1Cl` [(2R,5R)-5-[[3-[[3-chloro-5-(trifluoromethyl)-2-pyridinyl]amino]propylamino]-oxomethyl]-2-methyl-5-(phenylmethyl)-2H-pyrrole-1-carboxylic acid methyl ester] and `Cc1nn(Cc2ccc(Cl)cc2)c(=O)n1N(C)c1ncc(C(F)(F)F)cc1Cl` [MLS000541367] cannot be ordered by pIC50: less than 3.81 for the first, less than 3.81 for the second.

`COC(=O)COc1ccc2oc(=O)cc(-c3cc4cccc(OC)c4o3)c2c1` [MLS001167553] and `COc1ccc(CNC(=O)c2c(C)oc3c2C(=O)c2ccccc2C3=O)cc1` cannot be ordered by pIC50: less than 3.81 for the first, less than 3.81 for the second.

`Cc1ccc(-c2csc3nc(C)n(-n4c(C)ccc4C)c(=O)c23)o1` [SMR000061692] and `Cc1nc2scc(-c3cccs3)c2c(=O)n1-n1cccc1` [MLS000113688] cannot be ordered by pIC50: less than 3.81 for the first, less than 3.81 for the second.

`COC(=O)CN(c1nc(C)c(Br)c(OC)n1)S(=O)(=O)c1ccccc1` [[Benzenesulfonyl-(5-bromo-4-methoxy-6-methyl-pyrimidin-2-yl)-amino]-acetic acid methyl ester] and `CN(c1ccccc1)S(=O)(=O)c1ccc2[nH]c(O)nc2c1` [N-methyl-2-oxidanylidene-N-phenyl-1,3-dihydrobenzimidazole-5-sulfonamide] cannot be ordered by pIC50: less than 3.81 for the first, less than 3.81 for the second.

`COc1ccc(Nc2ccc(C(F)(F)F)cc2[N+](=O)[O-])cn1` [SMR000688981] and `Cc1ccc(Nc2ccc(C(N)=O)cc2[N+](=O)[O-])cc1C` [MLS000334544] cannot be ordered by pIC50: less than 3.81 for the first, less than 3.81 for the second.

`Cn1c2c(c(=O)n(C)c1=O)C(C(F)(F)F)(C(F)(F)F)NC(C1CCCCC1)=N2` [SMR000219726] and `O=C(COC(=O)C1=NN(c2ccccc2)C(=O)CC1)Nc1ccc([N+](=O)[O-])cc1C(F)(F)F` [SMR001244149] cannot be ordered by pIC50: less than 3.81 for the first, less than 3.81 for the second.

Compared with `CCOC(=O)C(=CC(C#N)C(=O)OCC)C(=N)N1CCN(c2ccc(OC)cc2)CC1` (centres undefined), `CCOC(=O)C(C#N)C=Nc1ccccc1OC` (centres undefined) [MLS000568396] is lower in pIC50: 3.86 for the first, less than 3.81 for the second. The first is the more potent here.

`c1ccc2c(c1)CCCN2c1nc2ccccc2n2cnnc12` [4-(3,4-dihydro-2H-quinolin-1-yl)-[1,2,4]triazolo[4,3-a]quinoxaline] and `N#CC(C=Nc1ccccc1O)c1nc2ccccc2o1` (centres undefined) [SMR000171441] cannot be ordered by pIC50: less than 3.81 for the first, less than 3.81 for the second.

`COc1ccc2[nH]c(C(=O)N/N=C/c3ccc(OC)c(O)c3)cc2c1` [MLS001214387] and `COc1ccc(/C=N/NC(=O)c2cc3cc(OC)c(OC)cc3[nH]2)cc1` cannot be ordered by pIC50: less than 3.81 for the first, less than 3.81 for the second.

`N#CCCSc1nc(N2CCOCC2)c2c(c1C#N)CCCC2` [3-(2-cyanoethylthio)-1-(4-morpholinyl)-5,6,7,8-tetrahydroisoquinoline-4-carbonitrile] and `O=C(N/N=C/c1sc(N2CCOCC2)nc1-c1ccccc1)c1ccc(O)cc1` [MLS000336683] cannot be ordered by pIC50: less than 3.81 for the first, less than 3.81 for the second.

`O=C1c2ccccc2C(=O)c2cc(S(=O)(=O)Nc3ccccc3)ccc21` [MLS000585519] and `O=C1C(Cl)=C(Nc2ccc3cn[nH]c3c2)C(=O)c2ccccc21` cannot be ordered by pIC50: less than 3.81 for the first, less than 3.81 for the second.

`CC(Sc1ncc(C(F)(F)F)cc1Cl)C(=O)NC(N)=O` (centres undefined) and `O=C(NC=NOCc1ccc(Cl)cc1Cl)NOCc1ncc(C(F)(F)F)cc1Cl` [1-[[3-chloro-5-(trifluoromethyl)-2-pyridinyl]methoxy]-3-[[(2,4-dichlorophenyl)methoxyamino]methylidene]urea] cannot be ordered by pIC50: less than 3.81 for the first, less than 3.81 for the second.

Compared with `CC(=N)C(C#N)C(=O)CSc1nn(-c2ccc(Cl)cc2)c(=S)s1` (centres undefined), `O=C(O)Cc1sc(N=NC=CCc2ccccc2)nc1O` [2-[4-oxo-2-[(2E)-2-[(E)-3-phenylprop-2-enylidene]hydrazinyl]-1,3-thiazol-5-yl]acetic acid] is higher in pIC50: less than 3.81 for the first, 4.01 for the second.

`NC(=O)c1ccc(Nc2ccc3c(c2)CCC3)c([N+](=O)[O-])c1` [4-(2,3-dihydro-1H-inden-5-ylamino)-3-nitro-benzamide] and `Cc1ccc(NC(=O)C2CCCO2)cc1[N+](=O)[O-]` (centres undefined) [SMR000197718] cannot be ordered by pIC50: less than 3.81 for the first, less than 3.81 for the second.

`c1cnn(-c2cncc(-n3cccn3)n2)c1` [2,6-bis(1-pyrazolyl)pyrazine] and `c1ccc2c(c1)nc(-c1ccncc1)n1nnnc21` [SMR000060326] cannot be ordered by pIC50: less than 3.81 for the first, less than 3.81 for the second.

`CCOc1cc(S(=O)(=O)N(CC)CC)c(OCC)cc1-n1cnnn1` [2,5-diethoxy-N,N-diethyl-4-(1,2,3,4-tetrazol-1-yl)benzenesulfonamide] and `CCOc1ccc(N(C)S(=O)(=O)c2cc(-c3cc(C)no3)ccc2CC)cc1` [N-(4-ethoxyphenyl)-2-ethyl-N-methyl-5-(3-methyl-1,2-oxazol-5-yl)benzenesulfonamide] cannot be ordered by pIC50: less than 3.81 for the first, less than 3.81 for the second.

`CC(N=Nc1ccc(C#N)cc1[N+](=O)[O-])C1C=CC(=O)C=C1` (centres undefined) [3-nitro-4-[2-[1-(4-oxidanylidenecyclohexa-2,5-dien-1-ylidene)ethyl]hydrazinyl]benzenecarbonitrile] and `COc1ccc(/C=N/N2C(=O)C3C4C=CC(C4)C3C2=O)cc1[N+](=O)[O-]` (centres undefined) [SMR000283338] cannot be ordered by pIC50: less than 3.81 for the first, less than 3.81 for the second.

`CC1(C)C2CCC(CN=C(N)CSS(=O)(=O)O)C1C2` (centres undefined) [SMR001821892] and `CCOC(=O)c1c(NC(=O)COC(=O)/C=C/c2ccco2)sc2c1CC(C)(C)NC2(C)C` [2-[[2-[(E)-3-(2-furanyl)-1-oxoprop-2-enoxy]-1-oxoethyl]amino]-5,5,7,7-tetramethyl-4,6-dihydrothieno[2,3-c]pyridine-3-carboxylic acid ethyl ester] cannot be ordered by pIC50: less than 3.81 for the first, less than 3.81 for the second.

`Cc1cc(/C=C(/C#N)c2cccc(F)c2)c(C)n1-c1cccnc1` [3-[2,5-dimethyl-1-(3-pyridinyl)-1H-pyrrol-3-yl]-2-(3-fluorophenyl)acrylonitrile] and `CCc1nccn1C(=O)c1cnn2c(C(F)F)cc(-c3ccc(C)cc3)nc12` [7-(difluoromethyl)-3-[(2-ethyl-1H-imidazol-1-yl)carbonyl]-5-(4-methylphenyl)pyrazolo[1,5-a]pyrimidine] cannot be ordered by pIC50: less than 3.81 for the first, less than 3.81 for the second.

`Cc1cc(OC(C)C)c2c(-c3ccccc3)cc(=O)oc2c1` [SMR000141385] and `CCOc1ccc(N(C)S(=O)(=O)c2cc(-c3cc(C)no3)ccc2C(C)C)cc1` [N-(4-ethoxyphenyl)-N-methyl-5-(3-methyl-1,2-oxazol-5-yl)-2-propan-2-yl-benzenesulfonamide] cannot be ordered by pIC50: less than 3.81 for the first, less than 3.81 for the second.

`CCN(CC)c1ccc(/C=N/NC(=O)CNC(=O)/C=C/c2ccco2)cc1` [MLS000912185] and `CN(C)CCCN1C(=O)c2cccc3c([N+](=O)[O-])ccc(c23)C1=O` [2-[3-(dimethylamino)propyl]-6-nitro-1H-benzo[de]isoquinoline-1,3(2H)-dione] cannot be ordered by pIC50: less than 3.81 for the first, less than 3.81 for the second.

`CC(N=O)c1cc(C(C)(C)C)c(O)c(C(C)(C)C)c1` (centres undefined) and `Cc1ccc(Nc2[nH]nc(C)c2[N+](=O)[O-])c(C)c1` [MLS000700556] cannot be ordered by pIC50: less than 3.81 for the first, less than 3.81 for the second.

`FC(F)(F)c1ccc(/N=C/c2sc(N3CCOCC3)nc2-c2ccccc2)cc1` [SMR000260329] and `COc1ccccc1-c1[nH]nc2c1[C@H](C)CC[C@H]2C(C)C` [(4R,7S)-3-(2-methoxyphenyl)-4-methyl-7-propan-2-yl-4,5,6,7-tetrahydro-1H-indazole] cannot be ordered by pIC50: less than 3.81 for the first, less than 3.81 for the second.
